Laboratory results published in PubChem BioAssay (NCI).
“And” between values parts separate entries of the source, which are not always exact repeats. Equal entries are not always repeated.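 Cells were grown in 96-well plates and exposed to each compound for 48 hours at five concentrations; endpoints were interpolated linearly between bracketing concentrations, or set to the highest concentration if not reached. Here, GI50 denotes the concentration required for 50% inhibition of growth. TGI denotes the concentration required for complete inhibition of growth.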

Columns and labels:
Experiment in all cases: NCI-60 cell line screen, 48 h
HCT-15 colon = test system: HCT-15 colon
HCC-2998 colon = test system: HCC-2998 colon
COLO 205 colon = test system: COLO 205 colon
SF-539 CNS = test system: SF-539 CNS
LOX IMVI melanoma = test system: LOX IMVI melanoma
A549 NSCLC = test system: A549 NSCLC
MOLT-4 leukemia = test system: MOLT-4 leukemia
SK-MEL-5 melanoma = test system: SK-MEL-5 melanoma
OVCAR-8 ovarian = test system: OVCAR-8 ovarian
HCT-116 colon = test system: HCT-116 colon

## CC(=O)NNc1nc(C)c(C(=O)NNC(=O)C(=O)Nc2ccc(Cl)cc2)s1
HCT-15 colon
  TGI: > 100 µM
HCC-2998 colon
  TGI: > 100 µM
COLO 205 colon
  TGI: > 100 µM
SF-539 CNS
  TGI: > 100 µM
LOX IMVI melanoma
  TGI: > 100 µM
A549 NSCLC
  TGI: > 100 µM
MOLT-4 leukemia
  TGI: > 100 µM
SK-MEL-5 melanoma
  TGI: > 100 µM
OVCAR-8 ovarian
  TGI: > 100 µM
HCT-116 colon
  TGI: > 100 µM

## Cc1ccc(C(=O)/C(=C/c2ccc([N+](=O)[O-])cc2)SCc2ccc(Cl)cc2)cc1
HCT-15 colon
  GI50: 0.565 µM
  TGI: 2.69 µM
HCC-2998 colon
  GI50: 1.67 µM
  TGI: 3.37 µM
COLO 205 colon
  GI50: 3.33 µM
  TGI: 20.7 µM
SF-539 CNS
  GI50: 2.06 µM
  TGI: 4.49 µM
LOX IMVI melanoma
  GI50: 0.445 µM
  TGI: 1.65 µM
A549 NSCLC
  GI50: 98.5 µM
  TGI: > 100 µM
MOLT-4 leukemia
  GI50: 0.471 µM
  TGI: > 100 µM
SK-MEL-5 melanoma
  GI50: 2.34 µM
  TGI: 6.43 µM
OVCAR-8 ovarian
  GI50: 1.86 µM
  TGI: 5.64 µM
HCT-116 colon
  GI50: 0.317 µM
  TGI: 1.36 µM

## O=CN/C=C/c1cc(O)ccc1O
HCT-15 colon
  TGI: 28.2 µM
HCC-2998 colon
  TGI: > 100 µM
COLO 205 colon
  TGI: 26.5 µM
SF-539 CNS
  TGI: 43.9 µM
LOX IMVI melanoma
  TGI: 28.1 µM
A549 NSCLC
  TGI: > 85.4 µM
MOLT-4 leukemia
  TGI: > 63.4 µM
SK-MEL-5 melanoma
  TGI: 39.3 µM
OVCAR-8 ovarian
  TGI: 43 µM
HCT-116 colon
  TGI: 29.2 µM

## Cc1coc2c1CC1(C)C(CCC(O)C1C)C2 (centres undefined)
HCT-15 colon
  TGI: > 100 µM
HCC-2998 colon
  TGI: > 100 µM
COLO 205 colon
  TGI: > 100 µM
SF-539 CNS
  TGI: > 100 µM
LOX IMVI melanoma
  TGI: > 100 µM
A549 NSCLC
  TGI: > 100 µM
MOLT-4 leukemia
  TGI: > 100 µM
SK-MEL-5 melanoma
  TGI: > 100 µM
OVCAR-8 ovarian
  TGI: > 100 µM
HCT-116 colon
  TGI: > 100 µM

## CN(C)CC[N+]1=Nc2cccc3cccc(c23)N1
HCT-15 colon
  TGI: > 100 µM
HCC-2998 colon
  TGI: > 100 µM
COLO 205 colon
  TGI: > 71.2 µM
SF-539 CNS
  TGI: > 100 µM
LOX IMVI melanoma
  TGI: > 63.7 µM
A549 NSCLC
  TGI: > 100 µM
MOLT-4 leukemia
  TGI: > 73.2 µM
SK-MEL-5 melanoma
  TGI: > 100 µM
OVCAR-8 ovarian
  TGI: > 100 µM
HCT-116 colon
  TGI: > 72.7 µM

## CCOC(=O)[C@]1(OC(C)=O)C[C@H](OC(C)=O)[C@@H](C(F)COP(=O)(OCc2ccccc2)OCc2ccccc2)O1 (some centres undefined)
HCT-15 colon
  GI50: 33.1 µM and > 100 µM
  TGI: > 100 µM
HCC-2998 colon
  TGI: > 100 µM
COLO 205 colon
  GI50: 19.4 µM and > 100 µM
  TGI: 36.3 µM and > 100 µM
SF-539 CNS
  TGI: > 100 µM
LOX IMVI melanoma
  GI50: 29.4 µM and > 100 µM
  TGI: > 100 µM
A549 NSCLC
  TGI: > 100 µM
MOLT-4 leukemia
  TGI: > 100 µM
SK-MEL-5 melanoma
  TGI: > 100 µM
OVCAR-8 ovarian
  TGI: > 100 µM
HCT-116 colon
  GI50: 23.4 µM and > 100 µM
  TGI: 57.9 µM and > 100 µM

## OCc1ccc(N2CCC2c2ccc(F)cc2)cc1Cl (centres undefined)
HCT-15 colon
  GI50: 21.5 µM
  TGI: > 100 µM
HCC-2998 colon
  GI50: 17.5 µM
  TGI: 46 µM
COLO 205 colon
  GI50: 3.44 µM
  TGI: 15.3 µM
SF-539 CNS
  GI50: 33.5 µM
  TGI: > 71 µM
LOX IMVI melanoma
  GI50: 22.5 µM
  TGI: 51.1 µM
A549 NSCLC
  GI50: 7.44 µM
  TGI: 64 µM
MOLT-4 leukemia
  GI50: 25 µM
  TGI: 64.6 µM
SK-MEL-5 melanoma
  GI50: 8.92 µM
  TGI: 22.9 µM
OVCAR-8 ovarian
  GI50: 23.6 µM
  TGI: > 100 µM
HCT-116 colon
  GI50: 0.481 µM
  TGI: > 38.2 µM

## COc1ccccc1C12OC(=O)C1(C)Oc1ccccc1C2=O (centres undefined)
HCT-15 colon
  TGI: > 100 µM
HCC-2998 colon
  TGI: > 100 µM
COLO 205 colon
  TGI: > 100 µM
SF-539 CNS
  TGI: > 100 µM
LOX IMVI melanoma
  TGI: > 100 µM
A549 NSCLC
  TGI: > 100 µM
MOLT-4 leukemia
  TGI: > 100 µM
SK-MEL-5 melanoma
  TGI: > 100 µM
OVCAR-8 ovarian
  TGI: > 100 µM
HCT-116 colon
  TGI: > 100 µM
